Laboratory results taken from article PMC5193436 (PLoS ONE, 2016).

Target: T1, Enolase 1 (αEnolase) (Homo sapiens, UniProt P06733)
T1 construct: gene ENO1; recombinant ENO1
Assay: direct spectrophotometric PEP assay ([…] nm) with purified recombinant ENO1; NADH-coupled assay in lysates
Type: biochemical

T1 sequence (P06733 2-434): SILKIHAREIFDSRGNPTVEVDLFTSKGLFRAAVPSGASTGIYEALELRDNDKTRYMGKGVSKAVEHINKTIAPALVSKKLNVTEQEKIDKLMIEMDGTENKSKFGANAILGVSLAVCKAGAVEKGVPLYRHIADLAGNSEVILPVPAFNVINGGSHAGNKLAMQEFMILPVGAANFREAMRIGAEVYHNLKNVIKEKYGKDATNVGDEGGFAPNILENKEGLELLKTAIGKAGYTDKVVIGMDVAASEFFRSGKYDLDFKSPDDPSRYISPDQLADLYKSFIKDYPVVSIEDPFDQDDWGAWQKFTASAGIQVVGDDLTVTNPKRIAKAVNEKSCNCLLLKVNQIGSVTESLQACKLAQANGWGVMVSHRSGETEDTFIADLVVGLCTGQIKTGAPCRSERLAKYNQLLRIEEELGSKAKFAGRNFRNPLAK

`O=C1C(P(=O)(O)O)CC(O)N1O` (stereo not shown) [SF2312, 3-dihydroxyphosphoryl-1,5-dihydroxy-2-pyrrolidone] was tested, and the “direct spectrophotometric PEP assay (240 nm) with purified recombinant ENO1; NAD” value was “SF2312 (c) on Enolase activity in purified recombinant ENO1 and ENO2 was determined using the direct PEP-detection assay”.
